Data: patent US20170258711A1, “Fatty Acid Acylated D-Amino Acids for Oral Peptide Delivery” (Novo Nordisk A/S, priority 2012, published 2017)

Tested on: Caco-2 cells
Experiment: Transepithelial electrical resistance (TEER) of Caco-2 cell monolayers
Type: cell-based
Parameters: unit not given here
Conditions: for TEER 24 h: 24 h after experiment
Description: Caco-2 cells were obtained from the American Type Culture Collection (Manassas, Va.). Cells were seeded in culturing flasks and passaged in Dulbecco's Modified Eagle′ medium supplemented with 10% fetal bovine serum, 1% penicillin/streptomycin (100 U/ml and 100 μg/ml, respectively), 1% L-glutamine and 1% nonessential amino acids. Caco-2 cells were seeded onto tissue culture treated polycarbonate filters in 12-well Transwell plates (1.13 cm2, 0.4 μm pore size) at a density of 10^5 cells/well. Monolayers were grown in an atmosphere of 5% CO2-95% O2 at 37° C. Growth media were replaced every other day. The experiment was performed on day 10-14 after seeding of Caco-2 cells.
Before and during the experiment the transepithelial electrical resistance (TEER) of the cell monolayers was monitored. In selected experiments, the transport buffer were changed to culturing medium after end of experiment and the TEER measured 24 h after experiment. The TEER was measured with EVOM™ Epithelial Voltohmmeter connected to Chopsticks.

[1] = Table 9, insulin analogue A14E, B25H, B29K(N(eps)Octadecanedioyl-gGlu-OEG-OEG), desB30 human insulin + 0.5 mM fatty acid acylated amino acid
[2] = Table 12, comparison D- with L-counterparts, footnote: insulin analogue A1(Nα,Nα-Dimethyl), A14E, B1(Nα,Nα-dimethyl), B25H, B29K(N(eps)Octadecanedioyl-gGlu-OEG-OEG), desB30 human insulin
[3] = Table 12, comparison D- with L-counterparts
[4] = Table 10, L-amino acid counterparts, insulin analogue A14E, B25H, B29K(N(eps)Octadecanedioyl-gGlu-OEG-OEG), desB30 human insulin
[5] = Table 10, L-amino acid counterparts
[6] = Table 11, insulin analogue A1(Nα,Nα-Dimethyl), A14E, B1(Nα,Nα-dimethyl), B25H, B29K(N(eps)Octadecanedioyl-gGlu-OEG-OEG), desB30 human insulin

| SMILES | TEER 24 h (Table 9, in culturing medium) | TEER 24 h [3] | TEER 24 h [5] | TEER 24 h [6] | TEER 24 h (Table 9, in culturing medium, listed as N-dodecanoyl-D-Leucine) | TEER 24 h (Table 10, L-amino acid counterparts, listed as N-decanoyl-L-Leucine) | TEER 60 min [1] | TEER 60 min [2] | TEER 60 min [4] | TEER 60 min [6] |
| --- | --- | --- | --- | --- | --- | --- | --- | --- | --- | --- |
| CCCCCCCCCCCC(=O)N1CCC[C@@H]1C(=O)O [N-dodecanoyl-D-proline] | 99.1 | 99.1 |  |  |  |  | 76.6 | 76.6 |  |  |
| CCCCCCCCCCCC(=O)N[C@@H](C(=O)O)[C@H](C)CC [N-dodecanoyl-D-isoleucine] |  | 101.4 |  |  |  |  |  | 48.3 |  |  |
| CCCCCCCCCCCCCCCC(=O)N[C@H](CC(=O)O)C(=O)O [N-hexadecanoyl-D-aspartic acid] | 112.2 | 112.2 |  | 87.0 |  |  | 24.1 | 24.1 |  | 74.7 |
| CCCCCCCCCCCC(=O)N[C@H](C(=O)O)C(C)C [N-dodecanoyl-L-valine, reference compound] |  | 95.3 | 95.3 |  |  |  |  | 79.7 | 79.7 |  |
| CCCCCCCCCCCC(=O)N[C@H](CC(C)C)C(=O)O [N-dodecanoyl-D-leucine] | 100.0 | 100 |  | 91.4 | 101.4 |  |  | 42.8 |  | 50.9 |
| CCCCCCCCCCCC(=O)N[C@H](Cc1ccccc1)C(=O)O [N-dodecanoyl-D-phenylalanine] | 108.4 | 108.4 |  |  |  |  | 37.6 | 37.6 |  |  |
| CCCCCCCCCCCCCCCC(=O)N[C@@H](CC(=O)O)C(=O)O [N-hexadecanoyl-L-aspartic acid, reference compound] |  | 112.3 | 112.3 | 97.2 |  |  |  | 33.2 | 33.2 | 76.0 |
| CCCCCCCCCCCC(=O)N[C@@H](C(=O)O)C(C)C [N-dodecanoyl-D-valine] | 99.3 | 99.3 |  |  |  |  | 66.1 | 66.1 |  |  |
| CCCCCCCCCC(=O)N[C@H](CC(C)C)C(=O)O [N-decanoyl-D-leucine] | 100.3 | 100.3 |  |  |  |  | 93.8 | 93.8 |  |  |
| CCCCCCCCCCCCCCCC(=O)N[C@H](CCC(=O)O)C(=O)O [N-hexadecanoyl-D-glutamic acid] | 106.2 | 106.2 |  |  |  |  | 35.6 | 35.6 |  |  |
| CCCCCCCCCCCC(=O)N[C@@H](CC(C)C)C(=O)O [N-dodecanoyl-L-leucine, reference compound] |  | 107.9 | 107.9 | 91.7 |  |  |  | 47.8 | 47.8 | 57.4 |
| CCCCCCCCCCCC(=O)N[C@@H](Cc1ccccc1)C(=O)O [N-dodecanoyl-L-phenylalanine, reference compound] |  | 100.4 | 100.4 |  |  |  |  | 36.6 | 36.6 |  |
| CCCCCCCCCC(=O)N[C@H](C(=O)O)[C@@H](C)CC [N-decanoyl-L-isoleucine, reference compound] |  | 102.4 |  |  |  |  |  | 58.3 |  |  |
| CCCCCCCCCC(=O)N[C@@H](CC(C)C)C(=O)O [N-decanoyl-L-leucine, reference compound] |  | 101.8 | 101.8 |  |  | 102.4 |  | 92.2 |  |  |

Continued, in another order:

| TEER 24 h (Table 9, in culturing medium) | TEER 24 h [3] | TEER 24 h [5] | TEER 24 h [6] | TEER 24 h (Table 9, in culturing medium, listed as N-dodecanoyl-D-Leucine) | TEER 24 h (Table 10, L-amino acid counterparts, listed as N-decanoyl-L-Leucine) | SMILES | TEER 60 min [1] | TEER 60 min [2] | TEER 60 min [4] | TEER 60 min [6] |
| --- | --- | --- | --- | --- | --- | --- | --- | --- | --- | --- |
|  | 109.5 | 109.5 |  |  |  | CCCCCCCCCCCCCCCC(=O)N[C@@H](CCC(=O)O)C(=O)O [N-hexadecanoyl-L-glutamic acid, reference compound] |  | 72.3 | 72.3 |  |
|  | 103.1 ± 3.7^¤ | 103.1 ± 3.7^¤ |  |  |  | CCCCCCCCCCCCCC(=O)N[C@@H](CCC(=O)O)C(=O)O [N-tetradecanoyl-L-glutamic acid, reference compound] |  | 82.0 ± 3.2^¤ | 82.0 ± 3.2^¤ |  |
|  | 122.3 | 122.3 |  |  |  | CCCCCCCCCCCCCC(=O)N[C@@H](Cc1ccc(O)cc1)C(=O)O [N-tetradecanoyl-L-tyrosine, reference compound] |  | 41.9 | 41.9 |  |
| 96.1 | 96.1 |  |  |  |  | CCCCCCCCCCCCCC(=O)N[C@H](CC(=O)O)C(=O)O [N-tetradecanoyl-D-aspartic acid] | 74.2 | 74.2 |  |  |
|  | 100.2 | 100.2 |  |  |  | CCCCCCCCCCCCCC(=O)N[C@@H](CC(=O)O)C(=O)O [N-tetradecanoyl-L-aspartic acid, reference compound] |  | 77.1 | 77.1 |  |
| 102.2 ± 1.9^¤ | 102.2 ± 1.9^¤ |  |  |  |  | CCCCCCCCCCCCCC(=O)N[C@H](CCC(=O)O)C(=O)O [N-tetradecanoyl-D-glutamic acid] | 79.9 ± 2.9^¤ | 79.9 ± 2.9^¤ |  |  |
|  | 107.9 | 107.9 |  |  |  | CCCCCCCCCCCCCC(=O)N[C@@H](Cc1c[nH]c2ccccc12)C(=O)O [N-tetradecanoyl-L-tryptophan, reference compound] |  | 27.8 | 27.8 |  |
| 125.3 | 125.3 |  |  |  |  | CCCCCCCCCCCCCC(=O)N[C@H](Cc1ccc(O)cc1)C(=O)O [N-tetradecanoyl-D-tyrosine] | 44.4 | 44.4 |  |  |
| 109.9 | 109.9 |  |  |  |  | CCCCCCCCCCCCCC(=O)N[C@H](Cc1c[nH]c2ccccc12)C(=O)O [N-tetradecanoyl-D-tryptophan] | 31.3 | 31.3 |  |  |
